Source: ChEMBL document CHEMBL1201862, “PubChem BioAssay data set” (2004)
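The compound was tested at five concentrations on cells cultured in 96-well plates, with a 48-hour exposure period. Here, GI50 denotes the concentration required for 50% inhibition of growth.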 The source made the active and inactive calls. No stated cut-off is given here; in the data, active = GI50 up to about 1.1 µM and inactive = higher.

How the values were obtained:
Assay in all cases: NCI anticancer screen, dose series, 48 h
[1] = test system: MDA-MB-435
[2] = test system: HCC 2998
[3] = test system: HCT-116
[4] = test system: TK-10
[5] = test system: NCI-H522
[6] = test system: SF-268
[7] = test system: NCI-H226
[8] = test system: SF-539
[9] = test system: 786-0
[10] = test system: HOP-92
[11] = test system: T47D
[12] = test system: LOX IMVI
[13] = test system: DU-145
[14] = test system: PC-3
[15] = test system: COLO 205
[16] = test system: SN12C
[17] = test system: ACHN
[18] = test system: MOLT-4
[19] = test system: SF-295
[20] = test system: A549
[21] = test system: K562
[22] = test system: NCI-H460
[23] = test system: A498
[24] = test system: SK-MEL-2
[25] = test system: RPMI-8226
[26] = test system: SW-620
[27] = test system: OVCAR-3
[28] = test system: SR
[29] = test system: OVCAR-8
[30] = test system: EKVX
[31] = test system: M14
[32] = test system: Hs-578T
[33] = test system: BT-549
[34] = test system: NCI-H23
[35] = test system: Malme-3M
[36] = test system: UO-31
[37] = test system: MDA-N
[38] = test system: KM12
[39] = test system: MCF7
[40] = test system: IGROV-1
[41] = test system: RXF 393
[42] = test system: U-251
[43] = test system: NCI/ADR-RES
[44] = test system: OVCAR-4
[45] = test system: SNB-75
[46] = test system: HT-29
[47] = test system: CCRF-CEM
[48] = test system: MDA-MB-231
[49] = test system: CAKI-1
[50] = test system: HOP-62
[51] = test system: HL-60
[52] = test system: UACC-257
[53] = test system: SK-MEL-28
[54] = test system: SK-MEL-5
[55] = test system: SNB-19

Measured: GI50

CC(=O)Oc1ccc2oc(=O)cc(C)c2c1
inactive: [1] > 100 µM | [2] > 100 µM | [3] > 100 µM | [4] > 100 µM | [5] > 100 µM | [6] > 100 µM | [7] > 100 µM | [8] > 100 µM | [9] > 100 µM | [10] > 100 µM | [11] > 100 µM | [12] > 100 µM | [13] > 100 µM | [14] > 10 µM | [15] > 100 µM | [16] > 100 µM | [17] > 100 µM | [18] > 100 µM | [19] > 100 µM | [20] > 100 µM | [21] > 100 µM | [22] > 100 µM | [23] > 100 µM | [24] > 100 µM | [25] > 100 µM | [26] > 100 µM | [27] > 100 µM | [28] > 100 µM | [29] > 100 µM | [30] > 100 µM | [31] > 100 µM | [32] > 100 µM | [33] > 100 µM | [34] > 100 µM | [35] > 100 µM | [36] > 100 µM | [37] > 100 µM | [38] > 100 µM | [39] > 100 µM | [40] > 100 µM | [41] > 100 µM | [42] > 100 µM | [43] > 100 µM | [44] > 100 µM | [45] > 100 µM | [46] > 100 µM | [47] > 100 µM | [48] > 100 µM | [49] > 100 µM | [50] > 100 µM | [51] > 100 µM | [52] > 100 µM | [53] > 100 µM | [54] > 100 µM | [55] > 100 µM
